This note sets out measurements from ChEMBL document CHEMBL3808387, “Discovery of IWP-051, a Novel Orally Bioavailable sGC Stimulator with Once-Daily Dosing Potential in Humans” (ACS Med Chem Lett, 2016).

The nature of series [1]: Intrinsic clearance in human liver microsomes assessed per mg of protein at 2 uM after 10 to 30 mins by LC/MS/MS analysis in presence of NADPH. The series is classed as ADME. To be noted: read-out: CLH.
The nature of series [2]: Intrinsic clearance in Sprague-Dawley rat liver microsomes assessed per mg of protein at 2 uM after 10 to 30 mins by LC/MS/MS analysis in presence of NADPH. To be noted: read-out: CLH. The series is classed as ADME. A general note: Liver microsomes are a subcellular fraction often used to study metabolism.
Series [3] addresses Soluble guanylate cyclase (Homo sapiens, UniProt O75343+P33402+Q02108+Q02153). Kind of series: Activation of SGC in HEK293 cells assessed as cGMP production after 20 mins by LC-MS/MS analysis in presence of NO-donor DETA-NONOate. The series is classed as cell-based.
In series [4] the target is Soluble guanylate cyclase (Homo sapiens) (UniProt Q02153+O75343+P33402+Q02108). Kind of series: Activation of SGC in HEK293 cells assessed as cGMP production at 30 uM after 20 mins by LC-MS/MS analysis in presence of NO-donor DETA-NONOate. Format: cell-based.

Each structure is given as a SMILES string.

Sequence of Soluble guanylate cyclase (Q02153 whole entry): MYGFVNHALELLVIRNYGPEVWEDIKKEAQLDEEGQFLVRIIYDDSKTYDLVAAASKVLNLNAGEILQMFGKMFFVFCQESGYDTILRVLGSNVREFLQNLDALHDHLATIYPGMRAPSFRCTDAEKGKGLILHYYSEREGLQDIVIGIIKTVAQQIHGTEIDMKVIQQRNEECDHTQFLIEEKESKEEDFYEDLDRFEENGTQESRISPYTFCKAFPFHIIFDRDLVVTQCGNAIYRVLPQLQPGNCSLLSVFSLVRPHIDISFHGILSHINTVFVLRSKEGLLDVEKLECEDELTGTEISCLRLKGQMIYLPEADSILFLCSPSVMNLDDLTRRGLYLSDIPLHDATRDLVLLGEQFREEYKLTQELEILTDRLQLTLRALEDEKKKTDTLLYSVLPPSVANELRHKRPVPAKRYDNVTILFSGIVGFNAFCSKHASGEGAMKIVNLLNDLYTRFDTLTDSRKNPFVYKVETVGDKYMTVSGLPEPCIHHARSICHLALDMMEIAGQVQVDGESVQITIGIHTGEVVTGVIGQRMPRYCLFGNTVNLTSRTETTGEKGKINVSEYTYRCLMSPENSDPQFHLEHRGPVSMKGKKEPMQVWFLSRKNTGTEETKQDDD
Sequence of Soluble guanylate cyclase (O75343 whole entry): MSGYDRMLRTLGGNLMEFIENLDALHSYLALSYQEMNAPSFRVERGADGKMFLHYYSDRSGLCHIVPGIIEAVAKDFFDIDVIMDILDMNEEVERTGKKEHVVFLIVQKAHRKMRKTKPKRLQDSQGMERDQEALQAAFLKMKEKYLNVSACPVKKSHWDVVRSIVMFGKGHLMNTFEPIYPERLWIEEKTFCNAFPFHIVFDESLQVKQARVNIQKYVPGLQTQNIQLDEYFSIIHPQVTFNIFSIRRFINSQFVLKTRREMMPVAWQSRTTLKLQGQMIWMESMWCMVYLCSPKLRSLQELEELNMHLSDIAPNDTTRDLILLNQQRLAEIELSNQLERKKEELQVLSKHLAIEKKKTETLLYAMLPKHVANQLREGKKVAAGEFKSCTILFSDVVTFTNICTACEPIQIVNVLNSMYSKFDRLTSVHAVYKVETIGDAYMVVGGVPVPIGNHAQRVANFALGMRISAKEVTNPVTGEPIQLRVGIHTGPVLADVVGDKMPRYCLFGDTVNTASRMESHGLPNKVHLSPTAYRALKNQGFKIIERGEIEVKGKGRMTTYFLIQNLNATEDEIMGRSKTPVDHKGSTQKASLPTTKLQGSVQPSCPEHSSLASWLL
Sequence of Soluble guanylate cyclase (P33402 whole entry): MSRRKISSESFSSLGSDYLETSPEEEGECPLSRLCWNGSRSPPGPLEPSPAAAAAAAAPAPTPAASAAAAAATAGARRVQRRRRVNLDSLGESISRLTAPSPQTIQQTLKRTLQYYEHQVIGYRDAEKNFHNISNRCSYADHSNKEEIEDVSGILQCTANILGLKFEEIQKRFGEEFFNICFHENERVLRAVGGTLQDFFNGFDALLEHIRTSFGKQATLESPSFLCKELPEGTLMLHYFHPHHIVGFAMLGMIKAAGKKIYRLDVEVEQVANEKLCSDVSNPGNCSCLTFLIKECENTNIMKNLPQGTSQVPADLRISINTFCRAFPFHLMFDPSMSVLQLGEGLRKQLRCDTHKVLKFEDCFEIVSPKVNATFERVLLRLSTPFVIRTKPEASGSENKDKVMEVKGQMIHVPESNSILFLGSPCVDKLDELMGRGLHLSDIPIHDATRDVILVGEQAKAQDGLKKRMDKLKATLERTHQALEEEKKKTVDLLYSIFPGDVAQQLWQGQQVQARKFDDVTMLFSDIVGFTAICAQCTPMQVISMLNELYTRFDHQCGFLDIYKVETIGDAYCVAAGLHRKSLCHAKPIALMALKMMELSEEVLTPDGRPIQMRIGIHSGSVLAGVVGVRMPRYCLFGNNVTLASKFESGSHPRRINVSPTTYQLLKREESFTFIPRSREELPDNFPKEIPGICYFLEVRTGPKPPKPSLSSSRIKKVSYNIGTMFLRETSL
Sequence of Soluble guanylate cyclase (Q02108 whole entry): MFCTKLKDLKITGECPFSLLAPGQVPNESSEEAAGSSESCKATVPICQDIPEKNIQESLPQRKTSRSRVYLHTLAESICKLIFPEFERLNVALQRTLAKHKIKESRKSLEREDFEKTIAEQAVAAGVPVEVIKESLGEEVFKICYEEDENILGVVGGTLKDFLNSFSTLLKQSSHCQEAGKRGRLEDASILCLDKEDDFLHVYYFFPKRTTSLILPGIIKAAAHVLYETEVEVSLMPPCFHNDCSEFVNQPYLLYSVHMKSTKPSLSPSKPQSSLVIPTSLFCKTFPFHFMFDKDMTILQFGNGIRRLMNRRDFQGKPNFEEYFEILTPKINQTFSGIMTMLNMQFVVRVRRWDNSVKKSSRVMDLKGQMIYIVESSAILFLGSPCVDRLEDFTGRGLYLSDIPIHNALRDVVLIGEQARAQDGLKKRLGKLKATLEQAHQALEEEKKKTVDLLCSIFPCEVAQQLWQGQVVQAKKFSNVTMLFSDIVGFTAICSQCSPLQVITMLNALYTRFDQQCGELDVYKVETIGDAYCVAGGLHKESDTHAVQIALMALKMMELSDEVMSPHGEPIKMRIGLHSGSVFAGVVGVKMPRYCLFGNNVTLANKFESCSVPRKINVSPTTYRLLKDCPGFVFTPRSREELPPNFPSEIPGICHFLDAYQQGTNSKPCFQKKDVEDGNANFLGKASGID

As for `Oc1nc(-c2cc(-c3ccon3)n(CCC(F)(F)F)n2)ncc1F`, the values for the microsomal CLint at 2 µM in series [1] and in series [2] were 23 µL/min/mg and 32 µL/min/mg, respectively.

Regarding `O=c1[nH]c(-c2cc(-c3ccsn3)n(Cc3ccccc3F)n2)ncc1F`, the microsomal CLint at 2 µM was determined as 169 µL/min/mg in series [1] and 129 µL/min/mg in series [2]. In addition, in series [3], the EC50 (as a rule, the concentration giving half of the maximal effect) is 0.18 µM.

As for `Oc1nc(-c2cc(-c3ccon3)n(Cc3cccc(F)c3F)n2)ncc1F`, the microsomal CLint at 2 µM came out at 7 µL/min/mg in series [1] and 3 µL/min/mg in series [2]. Also, the 50% effective concentration (EC50) in series [3] turned out to be 0.37 µM.

Consider `Oc1nc(-c2cc(-c3ccon3)n(Cc3ccccc3)n2)ncc1F`, for which the microsomal CLint at 2 µM in series [1] is 11 µL/min/mg; in series [2], 10 µL/min/mg. Moreover, the concentration for a half-maximal effect (EC50) in series [3] is 0.88 µM.

As for `CS(=O)(=O)c1cnc(-c2cc(-c3ccon3)n(Cc3ccccc3F)n2)nc1O`, the microsomal CLint at 2 µM in series [1] came out at 15 µL/min/mg; in series [2] it was 13 µL/min/mg. Moreover, in series [3], the 50% effective concentration (EC50) stood at 0.9 µM.

On to `N#Cc1cc(-c2ncc(F)c(=O)[nH]2)nn1Cc1ccccc1F`, for which the results for the microsomal CLint at 2 µM in series [1] and in series [2] were 7 µL/min/mg and 9 µL/min/mg, respectively.

On to `O=c1[nH]c(-c2cc(-c3ccon3)n(Cc3cccc(Cl)c3F)n2)ncc1F`, for which the microsomal CLint at 2 µM was 5 µL/min/mg in series [1] and 2 µL/min/mg in series [2]. For the same compound, the EC50 in series [3] worked out at 0.38 µM.

As to `Oc1nc(-c2cc(C3CC3)n(Cc3ccccc3F)n2)ncc1F`, the maximal response (Emax) (commonly the maximal effect, on the per cent scale that the assay sets) in series [4] was found to be 26%. Moreover, in series [2], the microsomal CLint at 2 µM was determined as 10 µL/min/mg.

For `Oc1nc(-c2cc(-c3ccon3)n(Cc3ncccc3F)n2)ncc1F`, the microsomal CLint at 2 µM in series [1] was determined as 15 µL/min/mg; in series [2], 7 µL/min/mg. Further, in series [4], the Emax was 44%.

`O=c1[nH]c(-c2cc(-c3ccon3)n(CCC(F)(F)C(F)(F)F)n2)ncc1F`: the microsomal CLint at 2 µM in series [1] came out at 6 µL/min/mg; in series [2], 4 µL/min/mg. The EC50 in series [3] is 1.5 µM.

Take `Oc1nc(-c2cc(-c3ccon3)n(Cc3ccccc3F)n2)ncc1Cl`: the microsomal CLint at 2 µM in series [1] was 7 µL/min/mg; in series [2] it was 5 µL/min/mg. For the same compound, the EC50 in series [3] was 0.59 µM.

In the case of `Oc1nc(-c2cc(-c3ccon3)n(Cc3sccc3F)n2)ncc1F`, the microsomal CLint at 2 µM came to 11 µL/min/mg in series [1] and 13 µL/min/mg in series [2]. The concentration giving a half-maximal response (EC50) in series [3] came out at 0.28 µM.

Consider `CN(c1ccccc1)S(=O)(=O)c1cnc(-c2cc(-c3ccon3)n(Cc3ccccc3F)n2)nc1O`, for which the microsomal CLint at 2 µM in series [1] was determined as 179 µL/min/mg; in series [2], 58 µL/min/mg. In series [3], the concentration giving a half-maximal response (EC50) came to 0.73 µM.

With `O=S(=O)(c1ccc(Cl)cc1)c1cnc(-c2cc(-c3ccon3)n(Cc3ccccc3F)n2)nc1O`, the microsomal CLint at 2 µM came out at 6 µL/min/mg in series [1] and 15 µL/min/mg in series [2]. In addition, the half-maximal effective concentration (EC50) in series [3] came out at 0.16 µM.

As for `O=c1[nH]c(-c2cc(-c3ccon3)n(Cc3ccc(F)cc3F)n2)ncc1F`, the microsomal CLint at 2 µM in series [1] and in series [2] was 4 µL/min/mg each time. In addition, in series [3], the EC50 was 0.53 µM.

Consider `CN(C)S(=O)(=O)c1cnc(-c2cc(-c3ccon3)n(Cc3ccccc3F)n2)nc1O`, for which the microsomal CLint at 2 µM was 8 µL/min/mg in series [1] and 24 µL/min/mg in series [2]. Also, the Emax in series [4] is 87%.

In the case of `Oc1nc(-c2cc(-c3ccccn3)n(Cc3ccccc3F)n2)ncc1F`, the microsomal CLint at 2 µM in series [1] is 9 µL/min/mg; in series [2] it was 39 µL/min/mg. For the same compound, the Emax in series [4] was found to be 35%.

As to `Oc1nc(-c2cc(-c3ncco3)n(Cc3ccccc3F)n2)ncc1F`, the microsomal CLint at 2 µM in series [1] was 42 µL/min/mg; in series [2], 68 µL/min/mg. The EC50 in series [3] stood at 1.5 µM.

Regarding `N#Cc1cc(-c2ncc(F)c(O)n2)nn1Cc1ccccc1F`, the maximum response (Emax) in series [4] was determined as 73%.

`N#Cc1cnc(-c2cc(-c3ccon3)n(Cc3ccccc3F)n2)nc1O`: the microsomal CLint at 2 µM came to 8 µL/min/mg in series [1] and 14 µL/min/mg in series [2]. In addition, the concentration giving a half-maximal response (EC50) in series [3] came to 0.5 µM.

As to `CC(C)(O)c1cnc(-c2cc(-c3ccon3)n(Cc3ccccc3F)n2)nc1O`, the microsomal CLint at 2 µM in series [1] and in series [2] was 8 µL/min/mg throughout. Moreover, the maximal effect (Emax) in series [4] turned out to be 40%.

In the case of `COc1nc(-c2cc(-c3ccon3)n(Cc3ccccc3F)n2)ncc1F`, the microsomal CLint at 2 µM in series [1] worked out at 20 µL/min/mg.

For `O=S(=O)(c1ccccc1)c1cnc(-c2cc(-c3ccon3)n(Cc3ccccc3F)n2)nc1O`, the microsomal CLint at 2 µM is 18 µL/min/mg in series [1] and 27 µL/min/mg in series [2]. For the same compound, in series [3], the EC50 is 0.35 µM.

As to `Cc1nc(-c2cc(-c3ccon3)n(Cc3ccccc3F)n2)nc(O)c1F`, the figures for the microsomal CLint at 2 µM in series [1] and in series [2] were 9 µL/min/mg and 16 µL/min/mg, respectively. In addition, the maximal effect (Emax) in series [4] is 70%.

As to `Cc1cccc(Cn2nc(-c3ncc(F)c(O)n3)cc2-c2ccon2)c1F`, the microsomal CLint at 2 µM amounted to 8 µL/min/mg in series [1] and 79 µL/min/mg in series [2]. The EC50 in series [3] stood at 0.24 µM.

In the case of `Oc1nc(-c2cc(-c3ncon3)n(Cc3ccccc3F)n2)ncc1F`, the maximum response (Emax) in series [4] was found to be 68%. In addition, in series [2], the microsomal CLint at 2 µM is 4 µL/min/mg.

`Oc1nc(-c2cc(-c3cocn3)n(Cc3ccccc3F)n2)ncc1F`: the microsomal CLint at 2 µM in series [1] is 4 µL/min/mg; in series [2], 9 µL/min/mg. In addition, the Emax in series [4] worked out at 78%.

For the compound `Oc1nc(-c2cc(-c3ccon3)n(Cc3ccccc3F)n2)ncc1C(F)(F)F`, the microsomal CLint at 2 µM came out at 19 µL/min/mg in series [1] and 20 µL/min/mg in series [2]. In addition, the maximal effect (Emax) in series [4] amounted to 54%.

`Oc1ccnc(-c2cc(-c3ccon3)n(Cc3ccccc3F)n2)n1`: the microsomal CLint at 2 µM was determined as 12 µL/min/mg in series [1] and 15 µL/min/mg in series [2]. In addition, the Emax in series [4] is 92%.

`Cc1cc(-c2cc(-c3ncc(F)c(O)n3)nn2Cc2ccccc2F)no1`: the microsomal CLint at 2 µM in series [1] was 118 µL/min/mg; in series [2] it was 249 µL/min/mg. Also, the Emax in series [4] stood at 23%.

Regarding `O=C(Nc1cnc(-c2cc(-c3ccon3)n(Cc3ccccc3F)n2)nc1O)c1ccccc1`, the microsomal CLint at 2 µM in series [1] was 14 µL/min/mg; in series [2] it was 26 µL/min/mg. For the same compound, the maximal response (Emax) in series [4] was 53%.
